Biological target: T1, sweet taste receptor (Homo sapiens, UniProt Q7RTX0+Q8TE23)
T1 sequence (Q8TE23 20-839): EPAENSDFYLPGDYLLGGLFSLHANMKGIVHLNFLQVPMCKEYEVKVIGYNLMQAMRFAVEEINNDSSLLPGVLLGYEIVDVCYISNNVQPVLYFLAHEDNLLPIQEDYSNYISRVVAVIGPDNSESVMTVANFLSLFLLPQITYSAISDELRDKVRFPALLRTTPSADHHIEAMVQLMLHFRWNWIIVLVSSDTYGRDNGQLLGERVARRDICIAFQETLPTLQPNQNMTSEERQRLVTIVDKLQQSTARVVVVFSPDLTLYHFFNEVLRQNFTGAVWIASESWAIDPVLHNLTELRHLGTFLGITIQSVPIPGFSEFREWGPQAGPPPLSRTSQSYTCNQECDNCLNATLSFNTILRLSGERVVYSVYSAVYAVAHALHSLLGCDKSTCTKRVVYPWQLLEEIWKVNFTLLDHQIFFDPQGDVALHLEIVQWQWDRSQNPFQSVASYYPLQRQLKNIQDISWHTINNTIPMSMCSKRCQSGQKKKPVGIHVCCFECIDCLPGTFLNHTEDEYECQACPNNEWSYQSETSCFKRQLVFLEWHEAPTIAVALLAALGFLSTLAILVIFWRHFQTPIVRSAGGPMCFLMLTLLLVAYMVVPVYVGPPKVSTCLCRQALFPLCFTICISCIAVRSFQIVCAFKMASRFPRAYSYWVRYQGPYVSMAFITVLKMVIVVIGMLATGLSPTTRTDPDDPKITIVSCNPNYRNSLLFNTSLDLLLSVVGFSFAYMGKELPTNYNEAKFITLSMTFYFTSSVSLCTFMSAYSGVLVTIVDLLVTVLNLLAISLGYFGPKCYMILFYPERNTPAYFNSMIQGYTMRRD
T1 sequence (Q7RTX0 21-852): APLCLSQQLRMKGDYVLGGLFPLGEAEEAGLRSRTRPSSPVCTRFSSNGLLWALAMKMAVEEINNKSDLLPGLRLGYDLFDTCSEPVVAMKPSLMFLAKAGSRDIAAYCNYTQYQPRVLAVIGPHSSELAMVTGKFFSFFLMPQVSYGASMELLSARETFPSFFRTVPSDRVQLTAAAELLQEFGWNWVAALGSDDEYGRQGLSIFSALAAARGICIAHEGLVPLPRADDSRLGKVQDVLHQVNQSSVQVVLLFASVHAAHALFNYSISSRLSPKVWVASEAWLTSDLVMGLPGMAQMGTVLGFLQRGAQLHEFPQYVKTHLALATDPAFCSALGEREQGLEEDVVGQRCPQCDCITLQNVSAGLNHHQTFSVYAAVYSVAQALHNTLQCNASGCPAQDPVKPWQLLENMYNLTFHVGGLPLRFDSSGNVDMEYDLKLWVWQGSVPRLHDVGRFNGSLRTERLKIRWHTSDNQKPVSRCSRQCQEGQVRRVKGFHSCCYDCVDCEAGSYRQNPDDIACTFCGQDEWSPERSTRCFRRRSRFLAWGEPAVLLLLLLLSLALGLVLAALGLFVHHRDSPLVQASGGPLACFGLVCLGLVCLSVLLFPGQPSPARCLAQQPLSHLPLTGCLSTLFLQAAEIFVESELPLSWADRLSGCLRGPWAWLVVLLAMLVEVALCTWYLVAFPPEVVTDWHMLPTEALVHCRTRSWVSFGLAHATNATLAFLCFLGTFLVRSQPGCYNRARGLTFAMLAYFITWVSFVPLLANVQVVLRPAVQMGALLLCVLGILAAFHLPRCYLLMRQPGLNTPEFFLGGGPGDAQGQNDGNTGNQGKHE
Experiment: Synergy effects (sweet taste receptor signal increase) in binary compound mixtures
Type: cell-based
Details: calculated as L(X&Y)/(L(X)+L(Y)); for Synergy effect observed in binary compound mixture with Aspartame: partner Aspartame; for Synergy effect observed in binary compound mixture with Thaumatin: partner Thaumatin; for Synergy effect observed in binary compound mixture with NHDC: partner NHDC; for Synergy effect observed in binary compound mixture with sucralose: partner sucralose; for Synergy effect observed in binary compound mixture with sucrose: partner sucrose; for Synergy effect observed in binary compound mixture with Reb A: partner Reb A
Description: The present example describes sweet taste receptor signal increases calculated for the following sweeteners: aspartame, sucrose, sucralose, rebaudioside A, rebaudioside D, thaumatin, NHDC, and S819 are present in various combinations in a binary mixture as shown in Table 1.
Synergy between binary mixtures of the sweeteners was calculated as following: L(X&Y)/(L(X)+L(Y)).

Compound	Synergy effect observed in binary compound mixture with Aspartame	Synergy effect observed in binary compound mixture with Thaumatin	Synergy effect observed in binary compound mixture with NHDC	Synergy effect observed in binary compound mixture with sucralose	Synergy effect observed in binary compound mixture with sucrose	Synergy effect observed in binary compound mixture with Reb A
COc1ccc(CCC(=O)c2c(O)cc(O[C@@H]3O[C@H](CO)[C@@H](O)[C@H](O)[C@H]3O[C@@H]3O[C@@H](C)[C@H](O)[C@@H](O)[C@H]3O)cc2O)cc1O [NHDC]	0.5	0.06	–	–	–	–
C=C1C[C@@]23CC[C@H]4[C@@](C)(CCC[C@@]4(C)C(=O)O[C@@H]4O[C@H](CO)[C@@H](O)[C@H](O)[C@H]4O)[C@@H]2CC[C@]1(O[C@@H]1O[C@H](CO)[C@@H](O)[C@H](O[C@@H]2O[C@H](CO)[C@@H](O)[C@H](O)[C@H]2O)[C@H]1O[C@@H]1O[C@H](CO)[C@@H](O)[C@H](O)[C@H]1O)C3 [Reb A, Rebaudioside A]	–	–	0.25	0.3	0.5	–
C=C1C[C@@]23CC[C@H]4[C@@](C)(CCC[C@@]4(C)C(=O)O[C@@H]4O[C@H](CO)[C@@H](O)[C@H](O)[C@H]4O[C@@H]4O[C@H](CO)[C@@H](O)[C@H](O)[C@H]4O)[C@@H]2CC[C@]1(O[C@@H]1O[C@H](CO)[C@@H](O)[C@H](O[C@@H]2O[C@H](CO)[C@@H](O)[C@H](O)[C@H]2O)[C@H]1O[C@@H]1O[C@H](CO)[C@@H](O)[C@H](O)[C@H]1O)C3 [Reb D, Rebaudioside D]	–	–	–	0.3	0.25	–
CC(C)Oc1ccc(NC(=S)NCc2ccc[nH]2)cc1 [S819, 1-((1H-pyrrol-2-yl)methyl)-3-(4-isopropoxyphenyl)thiourea]	–	0.4	0.4	–	–	0.25
Thaumatin	0.5	–	–	–	–	0.4

Source: US20240185945A1, “SYSTEMS AND METHODS FOR MODELING AND DISPLAYING SWEETENER SYNERGY” (WM. WRIGLEY JR. COMPANY, priority 2022, published 2024)
